In PMC1989143, “An Expanded Set of Amino Acid Analogs for the Ribosomal Translation of Unnatural Peptides” (PLoS ONE, 2007):

How the values were obtained:
Experiment in all cases: tRNA aminoacylation competition assay, MALDI-TOF MS
Type in all cases: biochemical
[1] = molecular target: T1, HisRS (Escherichia coli, UniProt P60906); conditions: 15000 µM; 15 µM natural His (Table 3), 6 mM ATP, 17 mM MgCl2, E. coli total tRNA, pH 7.4, 37 °C; competitive
T1 construct: gene hisS; His-tagged, recombinant, purified
T1 sequence (P60906 2-424): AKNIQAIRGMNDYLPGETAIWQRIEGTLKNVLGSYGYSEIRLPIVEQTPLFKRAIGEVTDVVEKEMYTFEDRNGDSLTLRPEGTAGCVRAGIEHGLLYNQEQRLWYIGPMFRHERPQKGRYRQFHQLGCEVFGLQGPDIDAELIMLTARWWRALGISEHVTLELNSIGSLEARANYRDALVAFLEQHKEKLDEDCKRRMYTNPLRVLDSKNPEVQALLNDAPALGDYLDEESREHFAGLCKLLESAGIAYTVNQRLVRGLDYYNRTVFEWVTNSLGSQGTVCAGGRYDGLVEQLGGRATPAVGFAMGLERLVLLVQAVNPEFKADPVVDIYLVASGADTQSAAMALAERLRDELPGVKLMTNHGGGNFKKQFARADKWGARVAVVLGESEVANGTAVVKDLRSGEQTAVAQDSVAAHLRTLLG
Excerpt: tRNA aminoacylation competition assay, MALDI-TOF MS on HisRS

[2] = molecular target: T2, TyrRS (Escherichia coli, UniProt P0AGJ9); conditions: 5000 µM; 5 µM natural Tyr (Table 3), 6 mM ATP, 17 mM MgCl2, E. coli total tRNA, pH 7.4, 37 °C; competitive
T2 construct: gene tyrS; His-tagged, recombinant, purified
Excerpt: tRNA aminoacylation competition assay, MALDI-TOF MS on TyrRS

[3] = molecular target: T3, GluRS (Escherichia coli, UniProt P04805); conditions: 10000 µM; 10 µM natural Glu (Table 3), 6 mM ATP, 17 mM MgCl2, E. coli total tRNA, pH 7.4, 37 °C; competitive
T3 construct: gene gltX; His-tagged, recombinant, purified
T3 sequence (P04805 1-471): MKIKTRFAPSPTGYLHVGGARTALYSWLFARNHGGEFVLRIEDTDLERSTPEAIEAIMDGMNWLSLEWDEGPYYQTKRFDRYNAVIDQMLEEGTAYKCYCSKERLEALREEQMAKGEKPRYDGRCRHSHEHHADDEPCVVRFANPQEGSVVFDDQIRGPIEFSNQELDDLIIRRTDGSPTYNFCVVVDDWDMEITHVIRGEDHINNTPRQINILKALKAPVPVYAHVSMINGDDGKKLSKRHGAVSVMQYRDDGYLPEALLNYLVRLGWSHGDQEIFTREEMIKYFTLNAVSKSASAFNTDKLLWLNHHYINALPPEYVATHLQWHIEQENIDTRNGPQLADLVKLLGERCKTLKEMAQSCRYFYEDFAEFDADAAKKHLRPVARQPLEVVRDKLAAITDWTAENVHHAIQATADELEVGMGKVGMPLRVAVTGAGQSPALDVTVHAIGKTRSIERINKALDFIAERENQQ
Excerpt: tRNA aminoacylation competition assay, MALDI-TOF MS on GluRS

[4] = molecular target: T4, TrpRS (Escherichia coli, UniProt P00954); conditions: 30000 µM; 30 µM natural Trp (Table 3), 6 mM ATP, 17 mM MgCl2, E. coli total tRNA, pH 7.4, 37 °C; competitive
T4 construct: gene trpS
Excerpt: tRNA aminoacylation competition assay, MALDI-TOF MS on TrpRS

[5] = molecular target: T5, AspRS (Escherichia coli, UniProt P21889); conditions: 50000 µM; 50 µM natural Asp (Table 3), 6 mM ATP, 17 mM MgCl2, E. coli total tRNA, pH 7.4, 37 °C; competitive
T5 construct: gene aspS; His-tagged, recombinant, purified
Excerpt: tRNA aminoacylation competition assay, MALDI-TOF MS on AspRS

[6] = molecular target: T6, ArgRS (Escherichia coli, UniProt P11875); conditions: 20000 µM; 20 µM natural Arg (Table 3), 6 mM ATP, 17 mM MgCl2, E. coli total tRNA, pH 7.4, 37 °C; competitive
T6 construct: gene argS; His-tagged, recombinant, purified
T6 sequence (P11875 1-577): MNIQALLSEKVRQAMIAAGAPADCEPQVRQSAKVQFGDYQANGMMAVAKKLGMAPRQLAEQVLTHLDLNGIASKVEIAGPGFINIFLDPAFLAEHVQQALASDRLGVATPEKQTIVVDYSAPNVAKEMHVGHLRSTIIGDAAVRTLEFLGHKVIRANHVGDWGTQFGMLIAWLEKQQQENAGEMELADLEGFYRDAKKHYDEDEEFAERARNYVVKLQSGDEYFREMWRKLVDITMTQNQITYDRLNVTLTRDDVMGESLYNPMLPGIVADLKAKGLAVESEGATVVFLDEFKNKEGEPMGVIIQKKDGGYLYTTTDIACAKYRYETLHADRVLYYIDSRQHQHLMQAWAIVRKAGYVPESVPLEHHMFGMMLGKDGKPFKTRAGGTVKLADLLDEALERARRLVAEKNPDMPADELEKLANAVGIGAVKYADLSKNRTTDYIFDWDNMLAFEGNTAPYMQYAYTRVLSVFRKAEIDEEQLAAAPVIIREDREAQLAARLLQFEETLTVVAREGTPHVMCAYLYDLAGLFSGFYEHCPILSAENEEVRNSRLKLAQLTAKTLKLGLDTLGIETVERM
Excerpt: tRNA aminoacylation competition assay, MALDI-TOF MS on ArgRS

[7] = molecular target: T7, MetRS (Escherichia coli, UniProt P00959); conditions: 50000 µM; 50 µM natural Met (Table 3), 6 mM ATP, 17 mM MgCl2, E. coli total tRNA, pH 7.4, 37 °C; competitive
T7 construct: gene metG; His-tagged, recombinant, purified
T7 sequence (P00959 2-677): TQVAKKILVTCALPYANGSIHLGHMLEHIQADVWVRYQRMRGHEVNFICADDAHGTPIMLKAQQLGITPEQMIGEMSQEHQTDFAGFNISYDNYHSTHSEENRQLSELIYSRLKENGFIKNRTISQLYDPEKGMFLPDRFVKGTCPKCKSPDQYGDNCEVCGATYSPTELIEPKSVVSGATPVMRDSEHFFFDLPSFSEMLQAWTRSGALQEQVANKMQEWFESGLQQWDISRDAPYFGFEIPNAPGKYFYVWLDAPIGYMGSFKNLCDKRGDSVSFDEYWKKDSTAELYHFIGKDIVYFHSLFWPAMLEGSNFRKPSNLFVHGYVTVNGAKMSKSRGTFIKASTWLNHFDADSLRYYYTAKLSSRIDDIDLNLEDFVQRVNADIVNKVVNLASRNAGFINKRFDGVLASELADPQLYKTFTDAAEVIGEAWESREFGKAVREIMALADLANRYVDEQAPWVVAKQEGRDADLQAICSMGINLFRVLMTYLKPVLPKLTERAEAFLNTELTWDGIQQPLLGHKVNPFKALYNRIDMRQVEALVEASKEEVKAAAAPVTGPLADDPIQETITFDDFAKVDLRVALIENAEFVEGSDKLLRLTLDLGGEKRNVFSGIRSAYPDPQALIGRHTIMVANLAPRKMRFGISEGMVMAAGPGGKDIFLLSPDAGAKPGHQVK
Excerpt: tRNA aminoacylation competition assay, MALDI-TOF MS on MetRS

[8] = molecular target: T8, ValRS (Escherichia coli, UniProt P07118); conditions: 50000 µM; 50 µM natural Val (Table 3), 6 mM ATP, 17 mM MgCl2, E. coli total tRNA, pH 7.4, 37 °C; competitive
T8 construct: gene valS; His-tagged, recombinant, purified
T8 sequence (P07118 1-951): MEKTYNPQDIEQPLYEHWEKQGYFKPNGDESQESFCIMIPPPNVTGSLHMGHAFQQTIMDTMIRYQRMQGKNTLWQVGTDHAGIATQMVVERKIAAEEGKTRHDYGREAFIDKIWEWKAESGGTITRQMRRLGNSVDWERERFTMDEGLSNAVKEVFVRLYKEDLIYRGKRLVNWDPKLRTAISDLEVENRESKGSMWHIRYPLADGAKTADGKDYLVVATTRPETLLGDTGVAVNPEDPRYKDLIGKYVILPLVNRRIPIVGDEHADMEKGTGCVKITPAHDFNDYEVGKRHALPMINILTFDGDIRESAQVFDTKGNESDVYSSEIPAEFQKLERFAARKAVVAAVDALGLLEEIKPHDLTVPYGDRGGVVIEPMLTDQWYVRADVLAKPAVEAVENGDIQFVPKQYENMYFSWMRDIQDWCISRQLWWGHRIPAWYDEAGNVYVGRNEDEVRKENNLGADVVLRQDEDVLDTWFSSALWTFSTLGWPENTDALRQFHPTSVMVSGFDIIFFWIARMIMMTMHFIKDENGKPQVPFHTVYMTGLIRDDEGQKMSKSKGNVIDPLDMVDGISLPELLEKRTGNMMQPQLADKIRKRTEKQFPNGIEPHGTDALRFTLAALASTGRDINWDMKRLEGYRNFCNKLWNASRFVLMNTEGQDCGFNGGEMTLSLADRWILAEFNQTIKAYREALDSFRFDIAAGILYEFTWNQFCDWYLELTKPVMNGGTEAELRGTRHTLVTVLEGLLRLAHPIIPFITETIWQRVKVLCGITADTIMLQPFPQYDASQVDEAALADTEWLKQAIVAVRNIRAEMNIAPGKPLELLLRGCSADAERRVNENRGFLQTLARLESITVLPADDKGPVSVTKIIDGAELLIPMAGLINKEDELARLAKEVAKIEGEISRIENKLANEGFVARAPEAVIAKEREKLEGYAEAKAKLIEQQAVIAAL
Excerpt: tRNA aminoacylation competition assay, MALDI-TOF MS on ValRS

[9] = molecular target: T9, LeuRS (Escherichia coli, UniProt P07813); conditions: 30000 µM; 30 µM natural Leu (Table 3), 6 mM ATP, 17 mM MgCl2, E. coli total tRNA, pH 7.4, 37 °C; competitive
T9 construct: gene leuS; His-tagged, recombinant, purified; wild-type
Excerpt: tRNA aminoacylation competition assay, MALDI-TOF MS on LeuRS

[10] = molecular target: T10, ProRS (Escherichia coli, UniProt P16659); conditions: 50000 µM; 50 µM natural Pro (Table 3), 6 mM ATP, 17 mM MgCl2, E. coli total tRNA, pH 7.4, 37 °C; competitive
T10 construct: gene proS; His-tagged, recombinant, purified
T10 sequence (P16659 1-572): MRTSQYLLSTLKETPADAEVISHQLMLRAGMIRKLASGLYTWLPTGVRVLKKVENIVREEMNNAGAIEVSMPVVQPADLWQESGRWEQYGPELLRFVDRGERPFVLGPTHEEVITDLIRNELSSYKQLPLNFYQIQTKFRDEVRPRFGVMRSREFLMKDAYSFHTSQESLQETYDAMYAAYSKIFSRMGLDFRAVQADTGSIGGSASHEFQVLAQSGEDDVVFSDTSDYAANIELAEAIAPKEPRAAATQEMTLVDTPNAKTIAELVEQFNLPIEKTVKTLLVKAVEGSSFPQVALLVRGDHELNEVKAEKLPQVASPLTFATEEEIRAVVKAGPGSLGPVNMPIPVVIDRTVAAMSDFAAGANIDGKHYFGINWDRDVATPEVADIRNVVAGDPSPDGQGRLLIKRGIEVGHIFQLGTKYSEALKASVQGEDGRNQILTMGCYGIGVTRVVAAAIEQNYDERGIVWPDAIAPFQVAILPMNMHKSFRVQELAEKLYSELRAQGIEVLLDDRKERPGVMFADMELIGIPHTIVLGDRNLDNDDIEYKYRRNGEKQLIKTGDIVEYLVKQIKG
Excerpt: tRNA aminoacylation competition assay, MALDI-TOF MS on ProRS

N[C@@H](Cc1nccs1)C(=O)O [A1, β-2-thiazolyl-alanine]
% Inhibition ^b [1]: 20 (range 0.4) %

NC(Cc1ccc(O)c(F)c1)C(=O)O (stereo not drawn) [A3, 3-fluoro tyrosine]
% Inhibition ^b [2]: 46 (range 23.0) %

N[C@@H](Cn1oc(=O)[nH]c1=O)C(=O)O [A15, L-quisqualic acid]
% Inhibition ^b [3]: 52 (range 1.2) %

N[C@@H](Cc1csc2ccccc12)C(=O)O [A23, 3-(thianaphthen-3-yl)-L-alanine]
% Inhibition ^b [4]: 19 (range 2.7) %

N[C@H](C(=O)O)[C@H](O)C(=O)O [C6, L-threo-β-hydroxy aspartic acid]
% Inhibition ^b [5]: 59 (range 0.5) %

N=C(N)NOCC[C@H](N)C(=O)O [C10, L-canavanine]
% Inhibition ^b [6]: 82 (range 10.3) %

C#CCCC(N)C(=O)O (stereo not drawn) [N1, 2-amino hex-5-ynoic acid]
% Inhibition ^b [7]: 82 (range 3.3) %

CCCC[C@H](N)C(=O)O [N3, L-norleucine]
% Inhibition ^b [7]: 73 (range 0.5) %

[N-]=[N+]=NCC[C@H](N)C(=O)O [N6]
% Inhibition ^b [7]: 97 (range 0.5) %

CC(C)(C)C(N)C(=O)O (stereo not drawn) [N13, t-butyl-glycine]
% Inhibition ^b [8]: 80 (range 0.4) %

CC(CC(N)C(=O)O)C(F)(F)F (stereo not drawn) [N17, 5′,5′,5′-trifluoro leucine]
% Inhibition ^b [9]: 83 (range 16.7) %

CC(C)(C)C[C@H](N)C(=O)O [N18, β-t-butyl-alanine]
% Inhibition ^b [9]: 52 (range 22.2) %

O=C(O)[C@@H]1C=CCN1 [N23, 3,4-dehydro proline]
% Inhibition ^b [10]: 67 (range 12.6) %

O=C(O)[C@@H]1CCN1 [N24, L-azetidine-2-carboxylic acid]
% Inhibition ^b [10]: 28 (range 10.0) %

NC1(C(=O)O)CCCC1 [α1, 1-amino cyclopentanoic acid]
% Inhibition ^b [8]: 59 (range 3.3) %
